# Data as given in US20020086027A1, “Composition and method for enhancing immunological memory response” (priority 1998, published 2002).
# Experiments:
# [1] = tested on: experimental autoimmune encephalomyelitis; settings: rat, in vivo; cited from earlier work
# CD25+ CD4 T cells = assay: Flow cytometry of CD25 and Fas (CD95) on primed cells; type: cell-based, human
# Method: For analysis of cell surface markers, primed cell populations separated on Ficoll-Paque gradients were used. […] Briefly, 1-3×10^5 cells per well were stained with primary antibodies at 4° C., followed by appropriately labeled secondary reagents if required. Samples were analyzed using a Bryte flow cytometer (bio-Rad, Hemel Hampstead, UK). Antibodies to the T cell markers CD3 (OKT3), CD4 (OKT4), and to the activation markers CD25 and Fas (CD95) were used for staining. To detect apoptosis using propidium iodide (PI, Sigma Chemical Co.), antibody-stained cells were fixed and permeabilized with 70% ethanol, washed, and PI […] added just before cytometric analysis. Data were analyzed using FlowJo software (Treestar, San Jose, Calif.).
# The phenotype of CD4 T cells activated during priming in vitro was examined next using various markers associated with T cell activation. Antibodies against CD25 (IL-2Ra), CD26, CD45RO, CD69 and gp240 were used, but except for CD25, none of the other markers gave consistent and reliable results (data not shown). CD25 expression on CD4 T cells in the responder populations was examined in a two-color flow cytometric analysis at two separate time points,—at the end of six days of priming and after two further rest days in culture after washing and resuspension in resh medium without any stimuli. Most CD25-expressing cells in the primed cultures were CD4 T cells. […] The frequency of CD25 expression increased in the PBMC-primed responders (FIG. 17B) and this percentage was lower if POX (100 μg/ml) was present during priming (FIG. 17C). […] Similar data were observed if dbcAMP was present during priming (data not shown). It can be seen that the proportion of CD25* cells was reproducibly lower if POX was present during priming with allo-PBMCs. However, after 48 hours of rest in culture, the frequency of CD25* cells declined in the populations primed in the absence of POX, while it went up in the group primed under POX cover.
# [2] = tested on: mercuric chloride-induced arthritis; settings: rats; cited from earlier work
# human T cells [3] = assay: Response of primed cells to IL-2 or PHA; type: cell-based; settings: for response of primed cells to PHA: primed in presence vs absence of 100 ug/ml drug
# Method: For priming in vitro, responder PBMCs were incubated for 72 or 144 h at a ratio of either 1:1 or 2:1 respectively, with stimulator PBMCs. Where appropriate, CsA. Aph. and/or Trental were added at the concentrations indicated, of PFA-fixed PBMCs were used instead.
# [4] = orally administered; cited from earlier work
# [5] = tested on: antigen-specific T cell memory; assay: Mice immunized with ovalbumin without adjuvant, splenic T cell recall proliferation; type: in vivo; settings: POX 1 mg per mouse per day, day -1 to day 5
# Method: Splenic cells were stimulated in vitro either on day 7 or on day 60 after immunization with titrated doses of ovalbumin for 4 days and pulsed with 3H-thymidine for 16 h before being harvested for scintillation spectrometry In the second system used to validate the memory-enhancing effects of POX, we have used immunization with a very poor immunogen, egg albumin without adjuvant.
# human T cells [6] = assay: Primary alloproliferative response of responder PBMCs to irradiated MHC-mismatched stimulator PBMCs ([3H]thymidine incorporation); type: cell-based
# Method: In this system, we have used responses to first exposure as an indication of primary responses. When cells stimulated in this fashion are rested in culture and then restimulated with the same stimulator PBMCs, the 'recall' response measured are taken as an indication of immune memory. Proliferation is measured by the incorporation of radioactive tritiated thymidine in dividing cells. PBMCs from HLA-mismatched individuals were separated using density-gradient centrifugation on Ficoll-Paque (Pharmacia, Uppsala, Sweden). Stimulator PBMCs were used in titrated doses after g-irradiation (200 rads). For the primary proliferative alloresponses, stimulator in graded doses were used with 1-3×10^5 responders per well in 200 μl of RPMI-1640 (Life Technologies, Grand Island, N.Y.) fortified with L-glutamine (Life Technologies) and antibiotics, containing 10% heat-inactivated responder autologous serum. Cultures were incubated in a CO2 atmosphere for five days, pulsed with 0.5 uCi of (H^3)-thymidine (New England Nuclear, Boston, Mass.) for the last 8-12 hours of the assay and harvested onto glass fiber filters for counting cell-incorporated thymidine (Betaplate; Wallac, Finland). results are expressed as mean cpm±SE for triplicate cultures. Dibutyryl cyclic AMP (dbcAMP), pentoxifylline (POX), aphidicolin (all from Sigma Chemical Co., St Louis, Mo.) and recombinant IL-2 (Boehringer Manheim Corp., Manheim Germany) were added singly or together to the culture in various doses as indicated during priming and in primary alloresponse assays. […] Sigma Chemical Co.) at room temperature for 20 minutes, washed extensively and used. PBMCs from MHC-mismatched donors were used as responder-stimulator pairs. Stimulator cells were used after γ-irradiation (200 rad) at various concentrations, as shown. Proliferation assays were set up as parallel cultures and were pulsed and harvested as below on different days when necessary for the analyses of the kinetics of the response. Where appropriate, cyclosporin A (CsA, Sandoz, Milan, Italy), aphidicolin (Aph, Sigma Chemical Co., and/or pentoxifylline ([…], Sigma Chemical Co.) Were added at the concentrations indicated, or PFA-fixed PBMCs were used. The plated were pulsed with 0.5 to 1 μCi of (^3H)thymidine ([^3H]TdR. Amersham, Little Chalfont, U.K.) During the last 12 to 16 h of the assay (4 days for a recall assay and 6 days for a primary assay, unless indicated otherwise). [^3H] TdR incorporation was measured by harvesting the cultures on glass-fibers and counting in a scintillation counter (Betaplate: LKB-Pharmacia. Uppsala, […]). The results are expressed as mean cpm±SE of triplicate cultures.
smiles,measurement,setting,value
"CC(=O)CCCCn1c(=O)c2c(ncn2C)n(C)c1=O [POX, pentoxifylline]",protection against EAE,[1],significant protection
same,frequency of CD25 expression,CD25+ CD4 T cells; after two further rest days in culture without stimuli,increased frequency
same,frequency of CD25 expression,"CD25+ CD4 T cells; at end of six days of priming, POX 100 μg/ml",lower
same,frequency and level of Fas expression in CD25+ population,CD25+ CD4 T cells; presence vs absence of POX during priming,unchanged
same,protection against arthritis,[2],significant protection
same,response of primed cells to IL-2,human T cells [3]; primed in presence vs absence of 100 μg/ml Trental,to the same extent
same,response of primed cells to PHA,human T cells [3],does not bring about any enhancement
same,response of primed cells to PHA,human T cells [3]; listed as Trental,comparable
same,LD50,[4],about 1385 milligrams per kilogram body weight
same,T cell memory recalled,[5]; day 7 post-immunization,higher
same,T cell memory recalled,[5]; day 60 post-immunization,dramatically high
same,primary proliferative response,human T cells [6]; Trental 100 ug/ml added to cells on 1 μg/ml Aph,further decreases
same,kinetics of primary response,"human T cells [6]; days 4-10, drugs present throughout",declines equivalently
same,primary proliferative response,human T cells [6]; drug 100 ug/ml present during primary alloresponse,declines
same,primary proliferative response,"human T cells [6]; drug 100 ug/ml present during primary alloresponse, listed as Trental",reduced significantly
same,primary response after drug removal,"human T cells [6]; drugs removed on day 6, pulsed days 8 and 10",no increase
same,primary proliferative response,"human T cells [6]; increasing doses 1-300 μg/ml, preliminary titrations",decrease
same,primary response to PF-fixed PBMCs,"human T cells [6]; stimulators fixed with 0.05% PF, POX 100 ug/ml",not enhanced
